Laboratory results: patent publication US11542481B2, “Morphinan N-demethylase isolated from the methylobacterium thebainfresser and methods of use thereof” (priority 2017, dated 2023)
Read-outs that look alike come from different tables or passages of the source.

B1: Methylobacterium Thebainfresser morphinan N-demethylase (MND), SEQ ID NO: 2, His-tag purified from E. coli PLUSE cells (Methylobacterium thebainfresser) (protein)
chain: MTEKTPKLGSEAANKLGLEADISRRDMVGGVLIGAGAALLASVAPGAINRALAEGPSRLPPVRGSGTGWRGIEIADDWQGPGGIGDYSKSNGNTGKVIRDAHAGIRNHEFEKRLATASDVNEKYDVIIVGAGISGLHSAYDLLRQRPNIKILMLDNHAIFGGEAKQNKMEVDGQALYGGQGPTLYSFVGDDLPSWKGNPALASIMELKTYPKEFGLPTETTWSDKKTDVKVPVDLWFSMASPSQTDIAYRWEGSGLVKNPLLNSFRDAPVSQKSKDAIALMLAVDNGAKRPVEPVGDVSTWVDNMTYAEFLKKVYGADDEAVQLVDQIDVVGTAGLGGDVFNASLAALGLNQYGGIELWNGGLQGLSLPTGNGGVGRSILRKFMPGAIKGGTSLTDTLFGDVNWDVLDHANNNVRIRLNSTVVGVQNNETPTGTKDATVFFLHDNRLYKAKGKAVIMGTPQQVNRNVCLNLPNHLSEAMGDFHHAPILVVNVALRNWKSMEKAGVSGLRWFGEYPGIGQIVRSMVIDGKEIMPCDPSKPAVMTFYIPMNQATRGMPRGEQAMTARHMLFNLTFADIELLIRDQLTRAFGSYGFDAKRDIAAIVANRWGHALVCAGPGFYTGLNGKPPVSKVITAGWDRVAFGHSDLSGRQAWTVAVNYARTAVANVFPKI

Assays:
MND enzyme [1] = assay type: biochemical, Methylobacterium Thebainfresser; details: for substrate acceptance / detectable N-demethylase activity (in words): overnight assays, purified MND enzyme from PLUSE cells
Experimental: Samples were injected by the UFLCXR (Shimadzu) autosampler/pump system using a 0.5 ml/min flow rate prior to separation using a Gemini C-18 column (150×2.00 mm, 5μ, 110 Å; Phenomenex) and introduction into the QTRAP 6500. The program consisted of a binary gradient with solvent A (5% acetonitrile/5% MeOH/10 mM ammonium acetate/15 mM NH4OH) and solvent B (90% acetonitrile/10 mM ammonium acetate/15 mM NH4OH) and the following gradient: 0-2.0 min 0% B, 2.0-9.0 min 0-44% B, 9.0-11.0 min 44-100% solvent B, 11-13 min 100% B and 100-0% solvent B from 13-14 min and held at 0% B for an additional 8 min. EPI scans for each substrate and predicted product mass were included for each enzyme assay and source parameters were identical to those used for the QTRAP 4000 above except CE and DP which were based upon the optimum for each individual compound. Masses used can be found in table 3. Data were analyzed using Analyst 1.6.2.
Substrates were prepared in a 1 mM stock concentration then diluted to 100 μM working concentration for use in enzyme assays with the MND enzyme. […] No more than 15% ethanol was added to the 1 mM concentrations. […] All enzyme assays contained 30 mM potassium phosphate buffer pH 8.0, 7.5 μM substrate and 100 μl of purified MND enzyme (˜36 μg) in a total volume of 200 μl. Duplicate assays of each substrate using purified pET28a empty vector were performed as negative control and an assay containing thebaine and MND enzyme was used as a positive control. Assays were incubated at 30° C. overnight prior to ethyl acetate extraction. All samples were diluted 10 fold with 50% MeOH and analyzed on the QTRAP 6500 using method 2 and a 20 μl injection volume. The percentage of substrate demethylation was calculated based upon reduction of substrate in the enzyme assay as compared to the negative control.
Purified MND enzyme from PLUSE cells was used to test various substrates containing a methylated nitrogen (FIG. 16) in overnight assays.

[2] = Proteinase K treatment and cofactor addition, conversion of thebaine to northebaine; assay type: biochemical; details: 1500 pmol cofactor added to no enzyme and pET28a empty vector controls
Experimental: The first of two assays performed included adding 1500 pmol FAD to the 200 MND enzyme assay including 100 μl purified MND (˜36 μg) and 1500 pmol thebaine in 30 mM potassium phosphate buffer pH 7.0 with and without a prior 1 hour digest (of MND enzyme) with Proteinase K. Controls included a no enzyme control, FAD addition to a no enzyme control, a pET28a empty vector control, a pET28a empty vector control with FAD, and a pET28a empty vector control digested with Proteinase K followed by FAD addition. Assays were allowed to incubate for 20 minutes and then processed as in section 23.0. A second set of assays was performed, in duplicate, to validate the results found in the previous assay in addition to testing more cofactors. This assay included the following conditions; MND enzyme, MND enzyme pre-digested with Proteinase K for 1 hour, MND enzyme digested with Proteinase K in the presence of 1% SDS and 10 mM EDTA, MND enzyme with 1% SDS and 10 mM EDTA (no Proteinase K pre-digestion), pET28a empty vector, pET28a empty vector pre-digested with Proteinase K for 1 hour, pET28a empty vector digested with Proteinase K in the presence of 1% SDS and 10 mM EDTA, MND enzyme with the addition of 1500 pmol FMN, pET28a empty vector with the addition of 1500 pmol FMN, MND enzyme with the addition of 1500 pmol PLP and pET28a empty vector with the addition of 1500 pmol PLP. Assays were allowed to proceed for 20 minutes prior to processing and quantitation as described in section 23.0.

MND enzyme [3] = assay: Purified MND enzyme assay using thebaine as substrate; assay type: biochemical, Methylobacterium Thebainfresser
Experimental: […]. No enzyme, boiled enzyme, and purified empty vector controls were included. MND enzyme was heated for 10 min at 95° C. for the boiled enzyme control. Assays were extracted twice with 400 μl ethyl acetate and dried to completion with N2. Dried samples were resuspended in 150 μl of 50% MeOH, filtered (low protein binding 0.2 μm, 4 mm, PTFE; Millipore), and diluted 100 fold prior to LC-MS/MS analysis on the QTRAP 6500 using method 1 and a 5 μl injection volume.
Enzyme assays using the purified MND enzyme protein produced in PLUSE cells were done, in duplicate, as indicated above with the following exceptions: 10 μl of 100 μM codeine standard was added to each assay, prior to extraction, as an internal standard. Dried extracts were resuspended in 200 μl of 50% MeOH, filtered (0.2 μm, 4 mm, PTFE, Millipore). Samples were diluted 50 fold prior to a 5 μl injection onto the QTRAP 6500 using method 1.

[4] = substrate: COC1=CC=C2[C@H]3Cc4ccc(OC)c5c4[C@@]2(CCN3C)[C@H]1O5; assay: purified protein, by the assay type; details: pH 7.0; 30.0 °C
[5] = overnight enzyme assay at 30° C., 7.5 μM substrate, ~36 μg purified MND enzyme, pH 8.0, reduction of substrate vs empty vector control, percentages approximate

Molecule | Percent demethylated (MND enzyme [1]; [5]) [%] | other results
COc1ccc(C[C@@H]2c3cc(O)c(OC)cc3CCN2C)cc1O [(R)-Reticuline] | 25 | 
COc1ccc(C[C@H]2c3cc(O)c(OC)cc3CCN2C)cc1O [(S)-Reticuline] | 55 | 
CN1[C@@H](CC(=O)c2ccccc2)CCC[C@H]1C[C@H](O)c1ccccc1 [(−)-Lobeline] | 20 | substrate acceptance / detectable N-demethylase activity (in words) (MND enzyme [1]): accepted
COc1cc2c(cc1O)[C@H](CCc1cc(O)c(OC)c(OC)c1)N(C)CC2 [Autumnaline] | 11 | 
COc1ccc2c3c1O[C@H]1[C@@H](O)C=C[C@H]4[C@@H](C2)N(C)CC[C@@]341 [Codeine] | 100 | 
COc1ccc2c3c1O[C@H]1C(=O)C=C[C@H]4[C@@H](C2)N(C)CC[C@]314 [Codeinone] | 100 | 
Cc1cc2nc3c(=O)[nH]c(=O)nc-3n(C[C@H](O)[C@H](O)[C@H](O)COP(=O)(O)OP(=O)(O)OC[C@H]3O[C@@H](n4cnc5c(N)ncnc54)[C@H](O)[C@@H]3O)c2cc1C [FAD, flavin adenine dinucleotide] |  | background demethylation of thebaine to northebaine on cofactor addition [2]: slight increase
Cc1cc2nc3c(=O)[nH]c(=O)nc-3n(C[C@H](O)[C@H](O)[C@H](O)COP(=O)(O)O)c2cc1C [FMN, flavin mononucleotide] |  | background demethylation of thebaine to northebaine on cofactor addition [2]: increase in background activity
COc1ccc2c3c1O[C@H]1C[C@@H](O)C=C[C@@]31CCN(C)C2 [Galanthamine] | 27 | substrate acceptance / detectable N-demethylase activity (in words) (MND enzyme [1]): accepted
CN(C)Cc1c[nH]c2ccccc12 [Gramine] | 51 | substrate acceptance / detectable N-demethylase activity (in words) (MND enzyme [1]): accepted
CC(=O)Oc1ccc2c3c1O[C@H]1[C@@H](OC(C)=O)C=C[C@H]4[C@@H](C2)N(C)CC[C@@]341 [Heroin] | 70 | 
CN1[C@@H]2CC[C@H]1C[C@@H](OC(=O)[C@H](CO)c1ccccc1)C2 [Hyoscyamine] | 18 | substrate acceptance / detectable N-demethylase activity (in words) (MND enzyme [1]): accepted
COc1cc2c3c(c1O)-c1c(cccc1OC)C[C@@H]3N(C)CC2 [Isothebaine] | 35 | substrate acceptance / detectable N-demethylase activity (in words) (MND enzyme [1]): accepted
COc1ccc(C[C@H]2c3cc(OC)c(OC)cc3CCN2C)cc1O [Laudanine (Laudanidine)] | 14 | 
COc1ccc(CC2c3cc(OC)c(OC)cc3CCN2C)cc1OC (centres unmarked) [Laudanosine] | 31 | 
CN1CC[C@]23c4c5ccc(O)c4O[C@H]2[C@@H](O)C=C[C@H]3[C@H]1C5 [Morphine] |  | Percent demethylated (MND enzyme [1]; pH 8): 100%
CN1CC[C@]23c4c5ccc(O)c4O[C@H]2C(=O)C=C[C@H]3[C@H]1C5 [Morphinone] | 100 | 
COc1ccc2c(c1OC)C(=O)O[C@@H]2[C@H]1c2c(cc3c(c2OC)OCO3)CCN1C [Noscapine (Narcotine)] | 20 | 
COc1cc(C[C@@H]2c3cc(O)c(OC)cc3CCN2C)ccc1O [Orientaline] | 100 | 
COC1=CC=C2[C@H]3Cc4ccc(O)c5c4[C@@]2(CCN3C)[C@H]1O5 [Oripavine] | 100 | 
CN1CC[C@]23c4c5ccc(O)c4O[C@H]2C(=O)CC[C@@]3(O)[C@H]1C5 [Oxymorphone] | 73 | 
Cc1ncc(COP(=O)(O)O)c(C=O)c1O [PLP] |  | background demethylation of thebaine to northebaine on cofactor addition [2]: did not
COc1ccc(CC2c3cc(OC)c(O)cc3CCN2C)cc1O (centres unmarked) [Protosinomenine] | 60 | 
COC1=C[C@]23CCN(C)[C@H](Cc4ccc(OC)c(O)c42)C3=CC1=O [Salutaridine] | 100 | 
COC1=C[C@]23CCN(C)[C@H](Cc4ccc(OC)c(O)c42)C3=C[C@@H]1O [Salutaridinol] | 100 | 
CN1[C@@H]2C[C@@H](OC(=O)[C@H](CO)c3ccccc3)C[C@H]1[C@@H]1O[C@@H]12 [Scopolamine] | 65 | substrate acceptance / detectable N-demethylase activity (in words) (MND enzyme [1]): accepted
COC1=CC=C2[C@H]3Cc4ccc(OC)c5c4[C@@]2(CCN3C)[C@H]1O5 [Thebaine] | 100 | conversion to N-demethylthebaine (northebaine) (MND enzyme [3]; aqueous solution at 30° C.): 100%; substrate depletion (in words) (MND enzyme [3]; overnight assay, purified MND enzyme, 1500 pmol thebaine, pH 8.0, 30° C.): depleted completely
CN1[C@@H]2CC[C@H]1CC(=O)C2 [Tropinone] | 40 | substrate acceptance / detectable N-demethylase activity (in words) (MND enzyme [1]): accepted
Isoorientaline | 86 | 
B1 |  | Km [4]: 0.97 µM; Vmax [4]: 0.32 pmol/s; kcat [4]: 0.00065 s⁻¹
